Test results taken from US20250195521A1 (Revolution Medicines, Inc., priority 2020, published 2025).

What follows are compounds tested on K-Ras G12C (NCI-H358 cells) (assay: Potency assay: pERK in NCI-H358 cells). Settings: Homo sapiens, NCI-H358, 4 h, read-out: pERK EC50 (H358 KRAS G12C).
Assay type: cell-based, human
Description: The purpose of this assay is to measure the ability of test compounds to inhibit K-Ras in cells. […] This procedure measures a decrease in cellular pERK in response to test compounds. The procedure described below in NCI-H358 cells is applicable to K-Ras G12C.
Note: This protocol may be executed substituting other cell lines to characterize inhibitors of other RAS variants, including, for example, AsPC-1 (K-Ras G12D), Capan-1 (K-Ras G12V), or NCI-H1355 (K-Ras G13C).
NCI-H358 cells were grown and maintained using media and procedures recommended by the ATCC. On the day prior to compound addition, cells were plated in 384-well cell culture plates (40 μl/well) and grown overnight in a 37° C., 5% CO2 incubator. Test compounds were prepared in 10, 3-fold dilutions in DMSO, with a high concentration of 10 mM. On the day of assay, 40 nL of test compound was added to each well of cell culture plate using an Echo550 liquid handler (LabCyte®). Concentrations of test compound were tested in duplicate. After compound addition, cells were incubated 4 hours at 37° C., 5% CO2. Following incubation, culture medium was removed and cells were washed once with phosphate buffered saline.
In some experiments, cellular pERK level was determined using the AlphaLISA SureFire Ultra p-ERK1/2 Assay Kit (PerkinElmer). Cells were lysed in 25 μL lysis buffer, with shaking at 600 RPM at room temperature. […] After a 2-hour incubation in the dark, 5 μL donor mix was added, plate was sealed, and incubated 2 hours at room temperature. Signal was read on an Envision plate reader (PerkinElmer) using standard AlphaLISA settings. Analysis of raw data was carried out in Excel (Microsoft) and Prism (GraphPad). Signal was plotted vs. the decadal logarithm of compound concentration, and IC50 was determined by fitting a 4-parameter sigmoidal concentration response model.
In other experiments, cellular pERK was determined by In-Cell Western. […] Fixed cells were washed 4 times for 5 minutes with TBS containing 0.1% Triton X-100 (TBST) and then blocked with 100 μL Odyssey blocking buffer (LI-COR) for 60 minutes at room temperature. Primary antibody (PERK, CST-4370, Cell Signaling Technology) was diluted 1:200 in blocking buffer, and 50 μL was added to each well and incubated overnight at 4° C. Cells were washed 4 times for 5 minutes with TBST. Secondary antibody (IR-800CW rabbit, LI-COR, diluted 1:800) and DNA stain DRAQ5 (LI-COR, diluted 1:2000) were added and incubated 1-2 hours at room temperature. Cells were washed 4 times for 5 minutes with TBST. Plates were scanned on a Li—COR Odyssey CLx Imager. Analysis of raw data was carried out in Excel (Microsoft) and Prism (GraphPad). Signal was plotted vs. the decadal logarithm of compound concentration, and IC50 was determined by fitting a 4-parameter sigmoidal concentration response model.
`C=CC(=O)N1CC[C@H](C(=O)N(C)[C@H](C(=O)N[C@H]2Cc3cc(cc(O)c3F)-c3ccc4c(c3)c(c(-c3c(CCOC)cccc3OC)n4CC)CC(C)(C)COC(=O)[C@@H]3CCCN(N3)C2=O)C(C)C)C1` [Compound A9] gave an EC50 of under 5 µM.
Compound `CCn1c(-c2cnccc2COC)c2c3cc(ccc31)-c1cc(O)cc(c1)C[C@H](NC(=O)[C@H](C(C)C)N(C)C(=O)[C@H]1CCN(C(=O)OC)C1)C(=O)N1CCC[C@H](N1)C(=O)OCC(C)(C)C2` [Compound A11, methyl (3S)-3-{[(1S)-1-{[(8S,14S)-22-ethyl-4-hydroxy-21-[4-(methoxymethyl)pyridin-3-yl]-18,18-dimethyl-9,15-dioxo-16-oxa-10,22,28-triazapentacyclo [18.5.2.1^2,6.1^10,14.0^23,27]nonacosa-1 (26),2,4,6 (29),20,23 (27),24-heptaen-8-yl]carbamoyl}-2-methylpropyl](methyl)carbamoyl}pyrrolidine-1-carboxylate] has an EC50 of under 5 µM.
`C=CC(=O)N1CC[C@H](C(=O)N(C)[C@H](C(=O)N[C@H]2Cc3cc(O)cc(c3)-c3ccc4c(c3)c(c(-c3ncccc3[C@@H](C)OC)n4CC)CC(C)(C)COC(=O)[C@@H]3CCCN(N3)C2=O)C(C)C)C1` [Compound A29] showed an EC50 of under 5 µM.
`C=CC(=O)N1CC[C@H](C(=O)N(C)[C@H](C(=O)N[C@H]2Cc3cc(OC(=O)N(C)CC(=O)O)cc(c3)-c3ccc4c(c3)c(c(-c3ccccc3CCOC)n4CC)CC(C)(C)COC(=O)[C@@H]3CCCN(N3)C2=O)C(C)C)C1` [Compound A78] gave an EC50 of under 5 µM.

Same assay, conditions: Homo sapiens; NCI-H358 cells, 4 hours; read-out: pERK EC50 (H358 KRAS G12C)
`CCn1c(-c2cccnc2[C@H](C)OC)c2c3cc(ccc31)-c1cc(O)cc(c1)C[C@H](NC(=O)[C@H](C(C)C)N(C)C(=O)[C@H]1CCC[C@H]1N)C(=O)N1CCC[C@H](N1)C(=O)OCC(C)(C)C2` (atropisomer, axis not shown) [Compound A131] showed an EC50 of under 5 µM.
Compound `CCn1c(-c2cccnc2[C@H](C)OC)c2c3cc(ccc31)-c1csc(n1)C[C@H](NC(=O)[C@H](C(C)C)N(C)C(=O)N1CC(C(C)(C)OC)C1)C(=O)N1CCC[C@H](N1)C(=O)OCC(C)(C)C2` (atropisomer, axis not shown) [Compound A614] has an EC50 of under 5 µM.
`CCn1c(-c2cnccc2COC)c2c3cc(ccc31)-c1cc(O)cc(c1)C[C@H](NC(=O)[C@H](C(C)C)N(C)C(=O)[C@H]1CCNC1)C(=O)N1CCC[C@H](N1)C(=O)OCC(C)(C)C2` [Compound A10] showed an EC50 of under 5 µM.
For `C=CC(=O)N1CC[C@H](C(=O)N(C)[C@H](C(=O)N[C@H]2Cc3cc(O)cc(c3)-c3ccc4c(c3)c(c(-c3ccccc3CCOC)n4C(C)(C)C#N)CC(C)(C)COC(=O)[C@@H]3CCCN(N3)C2=O)C(C)C)C1` [Compound A12], the EC50 was under 5 µM.
In the case of `CCn1c(-c2cnccc2COC)c2c3cc(ccc31)-c1cc(O)cc(c1)C[C@H](NC(=O)[C@H](C(C)C)N(C)C(=O)[C@H]1CCN(C)C1)C(=O)N1CCC[C@H](N1)C(=O)OCC(C)(C)C2` [Compound A27, (2S)—N-[(8S,14S)-22-ethyl-4-hydroxy-21-[4-(methoxymethyl)pyridin-3-yl]-18,18-dimethyl-9,15-dioxo-16-oxa-10,22,28-triazapentacyclo [18.5.2.1^2,6.1^10,14.0^23,27]nonacosa-1 (26),2,4,6 (29),20,23 (27),24-heptaen-8-yl]-3-methyl-2-{N-methyl-1-[(3S)-1-methylpyrrolidin-3-yl]formamido}butanamide], the EC50 is reported as under 5 µM.
Work on `CCn1c(-c2cccnc2COC)c2c3cc(ccc31)-c1cc(O)cc(c1)C[C@H](NC(=O)[C@H](C(C)C)N(C)C(=O)[C@H]1CCNC1)C(=O)N1CCC[C@H](N1)C(=O)OCC(C)(C)C2` [Compound A32] yielded an EC50 of under 5 µM.
`CCn1c(-c2cnccc2COC)c2c3cc(ccc31)-c1cc(O)cc(c1)C[C@H](NC(=O)[C@H](C(C)C)N(C)C(=O)[C@H]1CCN(S(=O)(=O)N3CC(N)C3)C1)C(=O)N1CCC[C@H](N1)C(=O)OCC(C)(C)C2` [Compound A35] gave an EC50 of under 5 µM.
Work on `CCn1c(-c2cnccc2COC)c2c3cc(ccc31)-c1cc(O)cc(c1)C[C@H](NC(=O)[C@H](C(C)C)N(C)C(=O)[C@H]1CCN(S(=O)(=O)N3CC(O)C3)C1)C(=O)N1CCC[C@H](N1)C(=O)OCC(C)(C)C2` [Compound A37, (2S)—N-[(8S,14S)-22-ethyl-4-hydroxy-21-[4-(methoxymethyl)pyridin-3-yl]-18,18-dimethyl-9,15-dioxo-16-oxa-10,22,28-triazapentacyclo [18.5.2.1^2,6.1^10,14.0^23,27]nonacosa-1 (26),2,4,6 (29),20,23 (27),24-heptaen-8-yl]-2-{1-[(3S)-1-[(3-hydroxyazetidin-1-yl)sulfonyl]pyrrolidin-3-yl]-N-methylformamido}-3-methylbutanamide] yielded an EC50 of under 5 µM.
`CCn1c(-c2cnccc2COC)c2c3cc(ccc31)-c1cc(O)cc(c1)C[C@H](NC(=O)[C@H](C(C)C)N(C)C(=O)CO)C(=O)N1CCC[C@H](N1)C(=O)OCC(C)(C)C2` [Compound A43, (2S)—N-[(8S,14S)-22-ethyl-4-hydroxy-21-[4-(methoxymethyl)pyridin-3-yl]-18,18-dimethyl-9,15-dioxo-16-oxa-10,22,28-triazapentacyclo [18.5.2.1^2,6.1^10,14.0^23,27]nonacosa-1 (26), 2,4,6 (29),20,23 (27),24-heptaen-8-yl]-2-(2-hydroxy-N-methylacetamido)-3-methylbutanamide] showed an EC50 of under 5 µM.
`CCn1c(-c2cnccc2COC)c2c3cc(ccc31)-c1cc(O)cc(c1)C[C@H](NC(=O)[C@H](C(C)C)N1CCCCC1=O)C(=O)N1CCC[C@H](N1)C(=O)OCC(C)(C)C2` [Compound A44] showed an EC50 of under 5 µM.
`CCn1c(-c2cnccc2COC)c2c3cc(ccc31)-c1cc(O)cc(c1)C[C@H](NC(=O)[C@H](C(C)C)N(C)S(C)(=O)=O)C(=O)N1CCC[C@H](N1)C(=O)OCC(C)(C)C2` [Compound A57, (2S)—N-[(8S,14S)-22-ethyl-4-hydroxy-21-[4-(methoxymethyl)pyridin-3-yl]-18,18-dimethyl-9,15-dioxo-16-oxa-10,22,28-triazapentacyclo [18.5.2.1^2,6.1^10,14.0^23,27]nonacosa-1 (26),2,4,6 (29),20,23 (27),24-heptaen-8-yl]-3-methyl-2-(N-methylmethanesulfonamido) butanamide] showed an EC50 of under 5 µM.
With `CCn1c(-c2cccnc2[C@H](C)OC)c2c3cc(ccc31)-c1cccc(c1)C[C@H](NC(=O)[C@H](C(C)C)N(C)C(=O)[C@H]1CCN(C(C)=O)C1)C(=O)N1CCC[C@H](N1)C(=O)OCC(C)(C)C2` [Compound A60] the EC50 was under 5 µM.
With `CCn1c(-c2cnccc2COC)c2c3cc(ccc31)-c1cc(O)cc(c1)C[C@H](NC(=O)[C@H]([C@@H](C)OC)N(C)C(C)=O)C(=O)N1CCC[C@H](N1)C(=O)OCC(C)(C)C2` [Compound A76] the EC50 was under 5 µM.
In the case of `CCn1c(-c2cnccc2COC)c2c3cc(ccc31)-c1cc(O)cc(c1)C[C@H](NC(=O)[C@H](C(C)C)N(C)C(=O)[C@@H]1CCOC1)C(=O)N1CCC[C@H](N1)C(=O)OCC(C)(C)C2` [Compound A94], the EC50 is reported as under 5 µM.
In the case of `CCn1c(-c2cnccc2COC)c2c3cc(ccc31)-c1cc(O)cc(c1)C[C@H](NC(=O)[C@H](C(C)C)N(C)C(=O)OC1CN(C)C1)C(=O)N1CCC[C@H](N1)C(=O)OCC(C)(C)C2` [Compound A101], the EC50 is reported as under 5 µM.
`CCn1c(-c2cccnc2[C@H](C)OC)c2c3cc(ccc31)-c1cccc(c1)C[C@H](NC(=O)[C@H](C(C)C)N(C)C(=O)[C@H]1CCN(C(=O)CN)C1)C(=O)N1CCC[C@H](N1)C(=O)OCC(C)(C)C2` [Compound A105] was tested, and the EC50 was under 5 µM.
Compound `CCn1c(-c2cccnc2[C@H](C)OC)c2c3cc(ccc31)-c1csc(n1)C[C@H](NC(=O)[C@H](C(C)C)N(C)C(=O)[C@H]1CCN(C)C1)C(=O)N1CCC[C@H](N1)C(=O)OCC(C)(C)C2` [Compound A108] has an EC50 of under 5 µM.
`CCn1c(-c2cccnc2[C@H](C)OC)c2c3cc(ccc31)-c1cc(O)cc(c1)C[C@H](NC(=O)[C@H](C(C)C)N(C)C(=O)[C@H]1CCN(CCO)C1)C(=O)N1CCC[C@H](N1)C(=O)OCC(C)(C)C2` [Compound A111] was tested, and the EC50 was under 5 µM.

Same assay, conditions: read-out: pERK EC50 (H358 KRAS G12C); NCI-H358 cells, 4 hours
`C=CC(=O)N1CC[C@H](C(=O)N(C)[C@H](C(=O)N[C@H]2Cc3cc(N)cc(c3)-c3ccc4c(c3)c(c(-c3ccccc3COC)n4CC)CC(C)(C)COC(=O)[C@@H]3CCCN(N3)C2=O)C(C)C)C1` [Compound A42] was tested, and the EC50 was under 5 µM.
